The values that follow come from PMC6099588.

The structures appear in SMILES notation.

Data set [1] has as its system HCVcc (Jc1/JFH genotype 2a). Type of data set: cell-based, hepatitis C virus.
The next data set can be described thus: in vitro. Particulars: human, CC50, Huh-7.5 cells, MTS assay, 72 h.
Another data set deals with influenza A virus. Particulars: cited from earlier work; for antiviral activity against influenza A virus: among compounds 1–9.
Data set [2] deals with classical swine fever virus. Particulars: cited from earlier work.
The subject of data set [3] is HCVpp. Particulars: 50 μM, added to HEK-293T producer cells; luciferase in infected Huh-7.5 cells.
In data set [4] the test system is HCV replication (Huh7-J17 replicon cell line). In words: HCV replicon luciferase assay in Huh7-J17 cells. The note with it: 72 h; for effect on HCV replication process (luciferase activity): Huh7-J17 replicon cells, different doses.
Data set [5] is described as follows: MTS cytotoxicity alongside the Huh7-J20 SEAP assay. Particulars: human, Huh7-J20 cells.
In a further data set the test system is HCVcc. In words: HCVcc dose-response SEAP reporter assay in Huh7-J20 cells. Particulars: for IC50: Hepatitis C virus, Huh7-J20, 72 h; for selectivity index (SI), CC50/IC50 ratio: Huh7-J20 cells, HCVcc.
A further data set relates to HCV E2 glycoprotein. The data set can be described thus: Western blot of E2 glycoprotein accumulation in transfected HEK293T cells. The note with it: anti-E2 MAb AP33, 48 h post transfection.
The test system of data set [6] is HCVpp. The data set can be described thus: microbe, parasite or virus in culture. Particulars: Hepatitis C virus, read-out: inhibition of infection (HCVpp).

As for `CC(=O)O[C@H]1[C@H](C)O[C@H](OC[C@H]2O[C@@H](n3ccc(=O)[nH]c3=O)[C@@H]3OC(C)(C)O[C@@H]32)C[C@@H]1O[Si](C)(C)C(C)(C)C` [Compound 1], the “anti-HCV activity (reduction of pseudoplaques)” value in data set [1] was “no obvious anti-HCV activity”. For the same compound, the CC50 in “in vitro” stood at 85 µM.
Take `CC1(C)O[C@@H]2[C@H](O1)[C@@H](CO[C@@H]1C[C@@H](OCc3ccccc3)[C@H](OCc3ccccc3)[C@@H](CO)O1)O[C@H]2n1ccc(=O)n(C(=O)c2ccccc2)c1=O` [IW7]: in the data set on influenza A virus, the “ability to inhibit influenza A virus” value was “most active”. For the same compound, in data set [2], the “ability to inhibit classical swine fever virus” value is listed as “most active”.
For the compound `CC(=O)O[C@H]1[C@H](C)O[C@H](OC[C@H]2O[C@@H](n3ccc(=O)n(C(=O)c4ccccc4)c3=O)[C@@H]3OC(C)(C)O[C@@H]32)C[C@@H]1O[Si](C)(C)C(C)(C)C` [Compound 2], the “anti-HCV activity (reduction of pseudoplaques)” value in data set [1] is “high antiviral activity”. In the data set on HCVpp [3], the “reduction of HCVpp production and/or infectivity relative to DMSO control” value is recorded as “about 80%”. Also, the “antiviral activity against influenza A virus” value in the data set with influenza A virus is recorded as “most active”. This compound gave a CC50 in the data set “in vitro” of 119 µM. The “effect on HCV replication process (luciferase activity)” value in data set [4] is “no effect on HCV replication process”. In addition, it took 113 µM to reach half-maximal cytotoxicity in [5] (CC50). For the same compound, in the data set on HCVcc, the IC50 is 8900 nM and the “selectivity index (SI), CC50/IC50 ratio” value came out at 12.7. For the same compound, the “accumulation of E2 glycoprotein in HEK293T cells” value with HCV E2 glycoprotein was “no change in the accumulation”.
Take `CC(=O)N[C@H]1[C@@H](O[C@@H]2O[C@H](C[C@@H](O)[C@H]3O[C@@H](n4ccc(=O)[nH]c4=O)[C@H](O)[C@@H]3O)[C@H](O)[C@H](O)[C@H]2NC(=O)/C=C/CCCCCCCCCC(C)C)O[C@H](CO)[C@@H](O)[C@@H]1O` [Tunicamycin]: the inhibition at 5 µM in the data set with HCVpp [6] is over 80%.
For the compound `CC1(C)O[C@@H]2[C@H](O1)[C@@H](CO[C@@H]1C[C@@H](OCc3ccccc3)[C@H](OCc3ccccc3)[C@@H](CO[Si](C)(C)C(C)(C)C)O1)O[C@H]2n1ccc(=O)n(C(=O)c2ccccc2)c1=O` [IW3], the “ability to inhibit influenza A virus” value in the data set on influenza A virus was “most active”. In addition, in data set [2], the “ability to inhibit classical swine fever virus” value is recorded as “most active”.
For the compound `CC1(C)O[C@@H]2[C@H](O1)[C@@H](CO[C@@H]1C[C@@H](OCc3ccccc3)[C@H](OCc3ccccc3)[C@@H](CO[Si](C)(C)C(C)(C)C)O1)O[C@H]2n1ccc(=O)[nH]c1=O` [Compound 5], the “anti-HCV activity (reduction of pseudoplaques)” value in data set [1] is on record as “no obvious anti-HCV activity”. This compound had a 50% cytotoxic concentration (CC50) in the data set “in vitro” of 83 µM.
As to `O=c1ccn([C@@H]2O[C@H](CO[C@@H]3C[C@@H](O)[C@H](O)[C@@H](CO)O3)[C@@H](O)[C@H]2O)c(=O)[nH]1` [Compound 9], the “anti-HCV activity (reduction of pseudoplaques)” value in [1] is “minor anti-HCV activity”. Further, the midpoint of cytotoxicity in the data set “in vitro”, the CC50, lay at 245 µM.
In the case of `CC(=O)OC[C@H]1O[C@H](OC[C@H]2O[C@@H](n3ccc(=O)n(Cc4ccccc4)c3=O)[C@@H]3OC(C)(C)O[C@@H]32)C[C@@H](OC(C)=O)[C@@H]1OC(C)=O` [Compound 8], in [1], the “anti-HCV activity (reduction of pseudoplaques)” value is given as “minor anti-HCV activity”. This compound also registered a CC50 in the data set “in vitro” of 223 µM.
For `CC1(C)O[C@@H]2[C@H](O1)[C@@H](CO[C@@H]1C[C@@H](OCc3ccccc3)[C@H](OCc3ccccc3)[C@@H](COCc3ccccc3)O1)O[C@H]2n1ccc(=O)n(C(=O)c2ccccc2)c1=O` [Compound 4], in [1], the “anti-HCV activity (reduction of pseudoplaques)” value is given as “high antiviral activity”. In the data set on HCVpp [3], the “reduction of HCVpp production and/or infectivity relative to DMSO control” value is “about 80%”. Also, the “antiviral activity against influenza A virus” value in the data set with influenza A virus is on record as “most active”. Also, the CC50 in “in vitro” stood at 151 µM; in [5] it was 142 µM. For the same compound, the “effect on HCV replication process (luciferase activity)” value in [4] is “no effect on HCV replication process”. Besides, in the data set with HCVcc, the IC50 worked out at 2100 nM. In the data set on HCVcc, the “selectivity index (SI), CC50/IC50 ratio” value came to 67.6. For the same compound, the “accumulation of E2 glycoprotein in HEK293T cells” value in the data set on HCV E2 glycoprotein was “no change in the accumulation”.
Consider `CC(=O)OC[C@H]1O[C@H](OC[C@H]2O[C@@H](n3ccc(=O)[nH]c3=O)[C@@H]3OC(C)(C)O[C@@H]32)C[C@@H](OC(C)=O)[C@@H]1OC(C)=O` [Compound 6], for which the “anti-HCV activity (reduction of pseudoplaques)” value in data set [1] is given as “no obvious anti-HCV activity”. Further, the 50% cytotoxic concentration (CC50) in the data set “in vitro” worked out at 210 µM.
Take `CC1(C)O[C@@H]2[C@H](O1)[C@@H](CO[C@@H]1C[C@@H](OCc3ccccc3)[C@H](OCc3ccccc3)[C@@H](COCc3ccccc3)O1)O[C@H]2n1ccc(=O)[nH]c1=O` [Compound 3]: the “anti-HCV activity (reduction of pseudoplaques)” value in data set [1] was “minor anti-HCV activity”. Also, the midpoint of cytotoxicity in the data set “in vitro”, the CC50, lay at 89 µM.
For `CC(C)OC(=O)[C@H](C)N[P@](=O)(OC[C@H]1O[C@@H](n2ccc(=O)[nH]c2=O)[C@](C)(F)[C@@H]1O)Oc1ccccc1` [Sofosbuvir, reference compound], the results for the half-inhibitory concentration (IC50) (in data set [4] (Hepatitis C virus); in the data set on HCVcc) were 28 nM and 260 nM, respectively. In the data set on HCVcc, the “selectivity index (SI), CC50/IC50 ratio” value was “about 120”.
